Measurements reported in patent US20260200946A1, “KRAS(G12V) INHIBITORS” (Ranok Therapeutics (Hangzhou) Co. Ltd., priority 2022, published 2026).

tested on: SW620 cells; test: Cancer cell line proliferation (CellTiter-Glo), SW620; type: cell-based; conditions: Homo sapiens, SW-620, SW620 colorectal adenocarcinoma, homozygous G12V, 72 hr
Protocol: Cell lines were cultured essentially according to ATCC recommendations. SW620 and NCIH727 cells were plated in 384-well tissue culture plates at 1,000 cells/well and incubated at 37° C./5% CO2 for 72 hr in 40 μl of media. […] Each cell line was then treated with test compounds at various concentrations with a final concentration of 0.5% DMSO/well, and then incubated at 37° C./5% CO2 for 72 hr. 40 μl of CellTiter-Glo® Reagent (Promega Corporation, Madison, WI) was added to each well and processed according manufacturer's protocol. Results were analyzed and IC50 values were calculated in GraphPad 8.0 software.

Structure (SMILES)	EC50
C#Cc1c(F)ccc2cc(O)cc(-c3ncc4c(N5CC6CCC(C5)N6C(=O)NC5CCCC5)nc(OCC5(CN6CCC(F)CC6)CC5)nc4c3F)c12 [Example 48]	> 1000 nM
C#Cc1c(F)ccc2cc(O)cc(-c3ncc4c(N5CC6CCC(C5)N6C(=O)NC5CCNC5)nc(OCC5(CN6CCC(F)CC6)CC5)nc4c3F)c12 (stereo not drawn) [Example 49]	> 1000 nM
C#Cc1c(F)ccc2cc(O)cc(-c3nc(OC)c4c(N5CC6CCC(C5)N6C(=O)C5CC5)nc(OCC5(CN6CCC(F)CC6)CC5)nc4c3F)c12 [Example 50]	> 1000 nM
C#Cc1c(F)ccc2cc(O)cc(-c3ncc4c(N5CC6CCC(C5)N6C(=O)NC5(C(F)(F)F)CC5)nc(OCC5(CN6CCC(F)CC6)CC5)nc4c3F)c12 [Example 51]	> 1000 nM
C#Cc1c(F)ccc2cc(O)cc(-c3nc(OC)c4c(N5CC6CCC(C5)N6C(=O)C(C)C(F)(F)F)nc(OCC5(CN6CCC(F)CC6)CC5)nc4c3F)c12 (stereo not drawn) [Example 52]	> 1000 nM

target: T1, KRAS(G12V)/SOS1 (Homo sapiens, UniProt P01116, G12V); test: KRAS(G12V)/SOS1 homogeneous time-resolved fluorescence (HTRF) assay; type: binding; conditions: absence of GTP; 4° C., 3 hours; read-out: HTRF of KRASG12V-SOS1
T1 construct: purchased Cisbio 63ADK000CB18PEH
T1 sequence (P01116 1-188 isoform P01116-2 G12V): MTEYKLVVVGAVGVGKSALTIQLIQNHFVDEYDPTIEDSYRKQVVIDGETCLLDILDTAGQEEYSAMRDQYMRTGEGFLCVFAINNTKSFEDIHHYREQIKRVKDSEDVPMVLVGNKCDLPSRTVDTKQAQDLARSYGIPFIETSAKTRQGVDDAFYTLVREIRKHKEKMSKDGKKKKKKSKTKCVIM
Protocol: Binding of test compounds to KRAS(G12V) target protein, which in turn blocks KRAS(G12V) interaction with the SOS1 protein, was measured in the absences of GTP by homogeneous time-resolved fluorescence using the KRAS-G12V/SOS1 Binding Assay Kit (Cisbio, 63ADK000CB18PEH), following the manufacturer's instructions, except as noted. 3-fold serial dilutions of each test compound were prepared ranging from 20 µM to 1.02 nM. The test compound was mixed and incubated with reaction components, incubated in a sealed plate at 4° C. for 3 hours and fluorescence was measured using a PerkinElmer Envision plate reader. The KRAS(G12V)-SOS1 IC50 values (the concentration of 50% of the maximal inhibition) were calculated using GraphPad Prism 8.0 software.

Structure (SMILES)	IC50
C#Cc1c(F)ccc2cc(O)cc(-c3ncc4c(N5CC6CCC(C5)N6C(=O)NC5CCCC5)nc(OCC5(CN6CCC(F)CC6)CC5)nc4c3F)c12 [Example 48]	< 100 nM
C#Cc1c(F)ccc2cc(O)cc(-c3ncc4c(N5CC6CCC(C5)N6C(=O)NC5CCNC5)nc(OCC5(CN6CCC(F)CC6)CC5)nc4c3F)c12 (stereo not drawn) [Example 49]	< 100 nM
C#Cc1c(F)ccc2cc(O)cc(-c3nc(OC)c4c(N5CC6CCC(C5)N6C(=O)C5CC5)nc(OCC5(CN6CCC(F)CC6)CC5)nc4c3F)c12 [Example 50]	< 100 nM
C#Cc1c(F)ccc2cc(O)cc(-c3ncc4c(N5CC6CCC(C5)N6C(=O)NC5(C(F)(F)F)CC5)nc(OCC5(CN6CCC(F)CC6)CC5)nc4c3F)c12 [Example 51]	< 100 nM
C#Cc1c(F)ccc2cc(O)cc(-c3nc(OC)c4c(N5CC6CCC(C5)N6C(=O)C(C)C(F)(F)F)nc(OCC5(CN6CCC(F)CC6)CC5)nc4c3F)c12 (stereo not drawn) [Example 52]	< 100 nM

tested on: NCIH727 cells; test: Cancer cell line proliferation (CellTiter-Glo), NCI-H727; type: cell-based; conditions: Homo sapiens, 72 h, NCIH727 lung carcinoid, heterozygous G12V
In short: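 NCI-H727 cells (1,000/well) were grown 72 h at 37 °C/5% CO2, then exposed to compound at various concentrations (0.5% DMSO final) for a further 72 h. Viability was read by CellTiter-Glo luminescence, and IC50 values were calculated from the dose-response.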

Structure (SMILES)	EC50
C#Cc1c(F)ccc2cc(O)cc(-c3ncc4c(N5CC6CCC(C5)N6C(=O)NC5CCCC5)nc(OCC5(CN6CCC(F)CC6)CC5)nc4c3F)c12 [Example 48]	> 1000 nM
C#Cc1c(F)ccc2cc(O)cc(-c3ncc4c(N5CC6CCC(C5)N6C(=O)NC5CCNC5)nc(OCC5(CN6CCC(F)CC6)CC5)nc4c3F)c12 (stereo not drawn) [Example 49]	> 1000 nM
C#Cc1c(F)ccc2cc(O)cc(-c3nc(OC)c4c(N5CC6CCC(C5)N6C(=O)C5CC5)nc(OCC5(CN6CCC(F)CC6)CC5)nc4c3F)c12 [Example 50]	> 1000 nM
C#Cc1c(F)ccc2cc(O)cc(-c3ncc4c(N5CC6CCC(C5)N6C(=O)NC5(C(F)(F)F)CC5)nc(OCC5(CN6CCC(F)CC6)CC5)nc4c3F)c12 [Example 51]	> 1000 nM
C#Cc1c(F)ccc2cc(O)cc(-c3nc(OC)c4c(N5CC6CCC(C5)N6C(=O)C(C)C(F)(F)F)nc(OCC5(CN6CCC(F)CC6)CC5)nc4c3F)c12 (stereo not drawn) [Example 52]	> 1000 nM
